Results: publication PMC6297231 (Nature Communications, 2018)
Like-named read-outs stand apart in the source and are kept apart here. Where a SMILES comes first, the peptide text is derived from it. The star is where a group is joined. Biotin = O=C1N[C@H]2[C@H](CS[C@H]2CCCCC(=O)*)N1; Ahx = NCCCCCC(=O)O

What was measured:
[1] = target: MV411; assay: Caspase-3/7 activation assay; format: cell-based
Protocol: (§4) Cells were plated at 3000 cells/well in 384-well white plates in corresponding cell growth media. […] Caspase-3/7 activation was subsequently determined using a Caspase-Glo 3/7 Reagent (Promega) and viability was assayed using the CellTiter-Glo Reagent (Promega) as described in manufacturer’s instructions. Dose–response curves for caspase-3/7 activation and viability were plotted and analyzed (including EC50 and GI50 determination) using GraphPad Prism.

[2] = target: MOLP8; assay: Caspase-3/7 activation assay; format: cell-based
Protocol: as §4

[3] = target: H23; assay: Caspase-3/7 activation assay; format: cell-based; details: for EC50: caspase activation, Mcl-1-dependent cell line, read-out: NCI-H23, EC50; for NCI-H23 caspase pEC50: mean of log transformed data
Protocol: as §4

[4] = target: T1, Bcl-2 (Homo sapiens, UniProt P10415); assay: TR-FRET binding assay; details: binding to Bcl-2, used in Ki calculations; read-out: Peptide, Kd
T1 construct: C-Terminal 6His-tagged Bcl-2 protein from Bcl-2 (M1-F212); made in house; host or cells: E. coli
T1 sequence (P10415 1-212): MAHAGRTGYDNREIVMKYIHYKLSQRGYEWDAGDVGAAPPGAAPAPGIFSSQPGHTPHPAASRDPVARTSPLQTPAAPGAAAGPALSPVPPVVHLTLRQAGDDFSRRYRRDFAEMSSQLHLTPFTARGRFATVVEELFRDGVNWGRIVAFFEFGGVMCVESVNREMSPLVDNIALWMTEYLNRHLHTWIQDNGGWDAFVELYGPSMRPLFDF
Excerpt: (§1) N-terminal GST-tagged-Mcl-1 protein from Mcl-1 (E171-G327), N-terminal GST-tagged Bcl-xL protein from Bcl-xL (1-209), N-Terminal 6His-tagged Bfl-1 protein from Bfl-1 (M1-K151), N-Terminal 6His-tagged Bcl-w protein from Bcl-w (M1-R171), and C-Terminal 6His-tagged Bcl-2 protein from Bcl-2 (M1-F212) were expressed as a tagged fusion protein in E. coli and subsequently purified via Glutathione Sepharose-affinity or Ni-NTA resin purification, and size-exclusion chromatography.
(§2) For TR-FRET, tagged fusion proteins were incubated with a Europium-labeled antibody and a HyLite Fluor 647-labeled peptide, or a biotin-labeled peptide with a streptavidin-labeled ulight fluorophore allowing the assembly of donor and acceptor dye pairs for use in protein-binding assays.
(§3) The reaction final concentrations for Mcl-1 were 1.5 nM GST-Mcl-1, 0.5 nM LanthaScreen Eu tagged GST antibody (LifeTechnologies cat#PV5594), and 4 nM HyLite Fluor 647-labeled Bim peptide C (Hilyte647 C2 Maleimide)-[…]; for Bcl-xl were 2 nM GST-Bcl-xl, 2 nM LanthaScreen Eu-tagged GST antibody, and 10 nM HyLite Fluor 647-labeled BAK peptide C(Hilyte647 C2 Maleimide)-[…]; for Bfl-1 were 4 nM His-Bfl-1, 0.5 nM LanthaScreen Eu-tagged HIS antibody (PerkinElmer cat#AD0205), and 10 nM HyLite Fluor 647-labeled BIM peptide C(Hilyte647-C2-Maleimide)-[…]; for Bcl-2 and Bcl-w: 2 nM His-Bcl-2, or 2 nM His-Bcl-w, with 0.5 nM LanthaScreen Eu-tagged HIS antibody, 10 nM biotin-labeled Bim peptide (Biotin-lc-[…]), and 2.4 nM a streptavidin labeled ULight Fluorophore (PerkinElmer cat#TRF0102-D). Reactions were incubated at 24 °C for 120–180 min before reading on a Tecan (InfiniteM1000 spectrofluorometer) with excitation at 340 nm and emission at […] and 665 nm. Ratio of fluorescent emission intensity at 665–620 nm was calculated for each reaction (equation 1). Percent inhibition was calculated based upon min (control compound) vs. max (DMSO) according to Eq. (2) and the IC50 was derived the smart fit curve (Genedata screener) of % inhibition vs. concentration. Ki values were calculated from Eq. […]

[5] = target: T2, Bcl-w (Homo sapiens, UniProt Q92843); assay: TR-FRET binding assay; details: binding to Bcl-w, used in Ki calculations; read-out: Peptide, Kd
T2 construct: N-Terminal 6His-tagged Bcl-w protein from Bcl-w (M1-R171); made in house; host or cells: E. coli
T2 sequence (Q92843 1-171): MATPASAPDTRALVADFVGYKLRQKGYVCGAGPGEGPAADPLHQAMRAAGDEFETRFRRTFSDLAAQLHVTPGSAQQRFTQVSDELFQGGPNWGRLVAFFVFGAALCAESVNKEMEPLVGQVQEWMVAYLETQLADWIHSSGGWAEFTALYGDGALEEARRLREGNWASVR
Excerpt: as §1, §2, §3

[6] = target: T3, Mcl-1 (Homo sapiens, UniProt Q07820); assay: TR-FRET binding assay; set-up: N-terminal GST-tagged-Mcl-1 protein from Mcl-1 (E171-G327); made in house; host or cells: E. coli
T3 sequence (Q07820 171-327): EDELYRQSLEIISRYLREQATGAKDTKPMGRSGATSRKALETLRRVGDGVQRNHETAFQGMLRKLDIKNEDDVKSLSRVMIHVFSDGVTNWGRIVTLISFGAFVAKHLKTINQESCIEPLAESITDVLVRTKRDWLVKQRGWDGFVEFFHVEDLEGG
Protocol: Percent inhibition was calculated based upon min (control compound) vs. max (DMSO) according to Eq. (2) and the IC50 was derived the smart fit curve (Genedata screener) of % inhibition vs. concentration. Ki values were calculated from Eq.

[7] = target: T3, Mcl-1; assay: SPR direct binding assay; set-up: 6His-tagged Mcl-1 protein (E171-G327) was immobilized using NTA capture-coupling
Protocol: A Biacore T200 instrument (GE Healthcare) was used to monitor binding interactions using a direct binding assay format. 6His-tagged Mcl-1 protein (E171-G327) was immobilized using NTA capture-coupling at a flow rate of 10 μL min^-1 and using an immobilization running buffer containing 10 mM HEPES, 300 mM NaCl, 1 mM TCEP, and 0.05% Tween-20 at 25 °C. […] Approximately 300 response units of Mcl-1 protein (2 μg mL^-1 in immobilization running buffer) were immobilized using the ‘aim for’ function in the T200 Control Software (GE Healthcare). Remaining reactive esters were blocked using a 7 min injection of 1 M ethanolamine. Reference flow cells were prepared without protein. All binding measurements were performed in 10 mM Tris, pH 7.5, 300 mM NaCl, 1 mM TCEP, 1% DMSO, and 0.02% Tween-20 at 25 °C at a flow rate of 30 μL min^-1. Buffer was primed through the instrument overnight to stabilize the surface before subsequent assay steps. Prior to kinetic analysis, solvent calibration and double referencing subtractions were made to eliminate bulk refractive index changes, injection noise, and data drift. Affinity and binding kinetic parameters were determined by global fitting to a 1:1-binding model within the Biacore T200 Evaluation Software (GE Healthcare).

[8] = test system: OCIAML5; assay: Caspase-3/7 activation assay; format: cell-based; details: Homo sapiens, OCI-AML-5, 6 h, read-out: 6h caspase EC50; OCIAML5, single agent
Protocol: as §4

[9] = test system: Nomo1; assay: Caspase-3/7 activation assay; format: cell-based; details: Homo sapiens, NOMO-1, 6 h, read-out: 6h caspase EC50; NOMO1, single agent
Protocol: as §4

[10] = test system: HEL92.1.7; assay: Caspase-3/7 activation assay; format: cell-based; details: Homo sapiens, HEL 92.1.7, 6 h, read-out: 6h caspase EC50; HEL9217, single agent
Protocol: as §4

[11] = test system: MOLM13; assay: Caspase-3/7 activation assay; format: cell-based; details: Homo sapiens, MOLM-13, 6 h, read-out: 6h caspase EC50; MOLM13, single agent
Protocol: as §4

[12] = test system: MOLM-13 leukemic cells; assay: MOLM-13 disseminated AML model; format: in vivo, mice; details: venetoclax 100 mg kg^−1 p.o. daily, AZD5991 60 mg kg^−1 i.v. weekly, after 10 days
Excerpt: MOLM-13: These studies complied with all relevant ethical regulations described in the guidelines established by GV-SOLAS Institutional Animal Care and Use Committee. Female CIEA-NOG mice were purchased from Taconic. Mice between 5 and 8 weeks old were tail vein injected with five million MOLM-13 cells. Treatment started 3 days after implantation. AZD5991, venetoclax, and vehicle were formulated and administered as mentioned above. Bone marrow and peripheral blood were collected 10 days post-treatment initiation, followed by red cell lysis (ACK lysis buffer), washes with FC buffer (PBS + 2% FCS) and cell staining with AquaZombie live/dead stain (cat#423102, Biolegend) containing antibodies against human CD45 (cat#564105, BDBiosciences) and human HLA-ABC (cat#561346, BDBiosciences) or isotype controls (mIgG1 cat#552834, BDBiosciences; mIgG1 cat#561504, BDBiosciences). Samples were washed with FC buffer and data acquired on an Attune NXT cytometer and analyzed using FlowJo software. Gating was performed on single/live/FCS vs. SSC/HLA-ABC vs. hCD45 double positive cells (Supplementary Figure 8).

[13] = test system: OCIAML3; assay: Caspase-3/7 activation assay; format: cell-based; details: Homo sapiens, OCI-AML-3, 6 h, read-out: 6h caspase EC50; OCIAML3, single agent
Protocol: as §4

[14] = test system: ME1; assay: Caspase-3/7 activation assay; format: cell-based; details: ME-1, 6 h, read-out: 6h caspase EC50; ME1, single agent
Protocol: as §4

[15] = test system: NB4; assay: Caspase-3/7 activation assay; format: cell-based; details: Homo sapiens, NB-4, 6 h, read-out: 6h caspase EC50; NB4, single agent
Protocol: as §4

[16] = test system: KG1; assay: Caspase-3/7 activation assay; format: cell-based; details: Homo sapiens, KG-1, 6 h, read-out: 6h caspase EC50; KG1, single agent
Protocol: as §4

[17] = test system: OCIM1; assay: Caspase-3/7 activation assay; format: cell-based; details: OCI-M1, 6 h, read-out: 6h caspase EC50; OCIM1, single agent
Protocol: as §4

[18] = test system: CMK; assay: Caspase-3/7 activation assay; format: cell-based; details: Homo sapiens, 6 h, read-out: 6h caspase EC50; CMK, single agent
Protocol: as §4

[19] = caspase activation, Mcl-1-dependent cell line, read-out: MV4-11, EC50
[20] = caspase activation, Mcl-1-dependent cell line, read-out: MOLP-8, EC50

Row | SMILES | EC50 [1, 19] | MV4-11 caspase pEC50 ([1]; mean of log transformed data) | EC50 [2, 20] | MOLP-8 caspase pEC50 ([2]; mean of log transformed data) | EC50 [3] | NCI-H23 caspase pEC50 [3] | IC50 ([6]; read-out: Mcl-1 FRET, IC50) | Kd ([7]; read-out: Mcl-1 SPR, Kd) | other results
1 | Cc1c2c(nn1C)CSCc1cc(n(C)n1)CSc1cc(c3ccccc3c1)OCCCc1c(C(=O)O)n(C)c3c-2c(Cl)ccc13 (atropisomer, axis not shown; (Sa)) [(Sa)-7] | > 16000 nM | < 4.8 | > 16 µM | < 4.8 | > 25 µM | < 4.6 | – | – | –
2 | CC[C@H](C)[C@H](NC(=O)[C@H](CCCNC(=N)N)NC(=O)[C@H](CCCNC(=N)N)NC(=O)[C@H](CC(C)C)NC(=O)[C@H](CCC(=O)O)NC(=O)[C@H](CC(N)=O)NC(=O)[C@H](C)NC(=O)[C@@H](NC(=O)[C@H](Cc1c[nH]c2ccccc12)NC(=O)[C@@H](NC(=O)[C@H](CCC(=O)O)NC(=O)[C@@H]1CCCN1C(=O)[C@H](CCCNC(=N)N)NC(=O)[C@H](CCSC)NC(=O)CNC(=O)CNC(=O)CCCCCNC(=O)CCCC[C@@H]1SC[C@@H]2NC(=O)N[C@@H]21)[C@@H](C)CC)[C@@H](C)CC)C(=O)NCC(=O)N[C@@H](CC(=O)O)C(=O)N[C@@H](CCC(=O)O)C(=O)N[C@@H](Cc1ccccc1)C(=O)N[C@@H](CC(N)=O)C(=O)N[C@@H](C)C(=O)O [Biotin Bim peptide(biotin-Ic-), reference compound] ({Biotin-Ahx}-GGMRPEIWIANELRRIGDEFNA-OH) | – | – | – | – | – | – | – | – | Kd [4]: 5 nM; Kd [5]: 10 nM
3 | Cc1ccccc1-c1cccc2c(CCCOc3cccc4c3CCCC4)c(C(=O)O)[nH]c12 [Compound 1, reference compound] | – | – | – | – | – | – | 1100 nM | – | –
4 | Cc1c(-c2cccc3c(CCCOc4cccc5ccccc45)c(C(=O)O)[nH]c23)c(CSCc2nn(C)c(C)c2-c2cccc3c(CCCOc4cccc5ccccc45)c(C(=O)O)[nH]c23)nn1C [Compound 3] | – | – | – | – | – | – | 770 nM | – | –
5 | Cc1c2c(nn1C)CSCc1cc(n(C)n1)CSc1cc(c3ccccc3c1)OCCCc1c(C(=O)O)[nH]c3c-2cccc13 [Compound 5] | – | – | – | – | – | – | 19 nM | 47 nM | IC50 ([6]; mean of log transformed data, read-out: MCL1 FRET pIC50 (converted)): 19.1 nM; EC50 ([1]; Homo sapiens, MV4-11, caspase activation, Mcl-1-dependent cell line, read-out: MV4-11, EC50): > 31500 nM; EC50 ([1]; Homo sapiens, MV4-11, mean of log transformed data, read-out: MV4-11 caspase pEC50 (converted)): > 31600 nM; EC50 ([2]; Homo sapiens, MOLP-8, caspase activation, Mcl-1-dependent cell line, read-out: MOLP-8, EC50): > 31.5 µM; EC50 ([2]; Homo sapiens, MOLP-8, mean of log transformed data, read-out: MOLP-8 caspase pEC50 (converted)): > 31.6 µM; Kd ([7]; mean of log transformed data, read-out: MCL1 SPR pKd (converted)): 46.8 nM
6 | Cc1c2c(nn1C)CSCc1cc(n(C)n1)CSc1cc(c3ccccc3c1)OCCCc1c(C(=O)O)n(C)c3c-2cccc13 [Compound 6] | 1050 nM | 5.98 | 0.66 µM | 6.18 | 5.75 µM | 5.24 | 4 nM | 8 nM | MCL1 FRET pIC50 ([6]; mean of log transformed data): 8.37; MCL1 SPR pKd ([7]; mean of log transformed data): 8.10
7 | Cc1nn(C)c(COc2ccc(N3CCN(S(=O)(=O)N(C)C)CC3)cc2)c1-c1cccc2c(CCCOc3cccc4ccccc34)c(C(=O)O)n(CCN3CCOCC3)c12 [Compound 8, A-1210477, reference compound] | 1860 nM | 5.73 | 3.55 µM | 5.45 | 20.9 µM | 4.68 | 6 nM | 11 nM | MCL1 FRET pIC50 ([6]; mean of log transformed data): 8.20; MCL1 SPR pKd ([7]; mean of log transformed data): 7.94
8 | CC1(C)CCC(CN2CCN(c3ccc(C(=O)NS(=O)(=O)c4ccc(NCC5CCOCC5)c([N+](=O)[O-])c4)c(Oc4cnc5[nH]ccc5c4)c3)CC2)=C(c2ccc(Cl)cc2)C1 [venetoclax, reference compound] | – | – | – | – | – | – | – | – | EC50 [8]: 73 nM; EC50 [9]: > 333 nM; EC50 [10]: > 333 nM; EC50 [11]: 9.66 nM; percentage of HLA-ABC+ hCD45+ leukemic cells in peripheral blood vs. vehicle [12]: significantly reduced; EC50 ([1]; Homo sapiens, MV4-11, 6 h, read-out: 6h caspase EC50, MV411, single agent): 45.2 nM; EC50 [13]: > 333 nM; EC50 [14]: 10.2 nM; EC50 [15]: 27.5 nM; EC50 [16]: 269 nM; EC50 [17]: > 333 nM; EC50 [18]: > 333 nM
